The values below come from PubChem BioAssay AID330 (DTP/NCI, 2004).

“And” between values parts separate entries of the source, which are not always exact repeats. Equal values may be shown once. Inconclusive results and toxic doses are left out.

The experiment relates to P388 leukemia ip, CD2F1 mice, survival T/C. The experiment can be described thus: NCI In Vivo Anticancer Drug Screen. Data for tumor model P388 Leukemia (intraperitoneal) in CD2F1 (CDF1) mice. The note with it: endpoint: median survival time, higher = longer survival. A digest of the protocol: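 Mice carrying the transplanted tumor received test compound or vehicle. Survival was recorded in each group, and the value is the treated-group measurement divided by that of the vehicle-treated control group.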

[1] abbreviates: dose: 6.25 mg/kg/injection, schedule: Q04DX003 (ip), vehicle: saline with Tween-80.
The mark [2] stands for this setting: dose: 12.5 mg/kg/injection, schedule: Q04DX003 (ip), vehicle: saline with Tween-80.
The mark [3] stands for this setting: dose: 100.0 mg/kg/injection, schedule: Q04DX002 (ip), vehicle: saline with Tween-80.
Where [4] appears, read: dose: 50.0 mg/kg/injection, schedule: Q01DX005 (ip), vehicle: saline with Tween-80.
The mark [5] stands for this setting: dose: 100.0 mg/kg/injection, schedule: Q01DX005 (ip), vehicle: saline with Tween-80.
Where [6] appears, read: dose: 100.0 mg/kg/injection, schedule: Q01DX001 (ip), vehicle: Klucel (hydroxypropylcellulose) (HPC).
The mark [7] stands for this setting: dose: 200.0 mg/kg/injection, schedule: Q01DX001 (ip), vehicle: Klucel (hydroxypropylcellulose) (HPC).
Where [8] appears, read: dose: 25.0 mg/kg/injection, schedule: Q01DX005 (ip), vehicle: Klucel (hydroxypropylcellulose) (HPC).
The mark [9] stands for this setting: dose: 50.0 mg/kg/injection, schedule: Q01DX005 (ip), vehicle: Klucel (hydroxypropylcellulose) (HPC).
Setting [10] is: dose: 60.0 mg/kg/injection, schedule: Q01DX005 (ip), vehicle: saline with Tween-80.
[11] abbreviates: dose: 120.0 mg/kg/injection, schedule: Q01DX005 (ip), vehicle: saline with Tween-80.
Setting [12] is: dose: 100.0 mg/kg/injection, schedule: Q01DX009 (ip), vehicle: saline with Tween-80.
Setting [13] is: dose: 200.0 mg/kg/injection, schedule: Q01DX009 (ip), vehicle: saline with Tween-80.

On to `Cc1cc(C)c(C(Cl)(Cl)Cl)c(C)c1Cl`, for which the T/C under setting [1] was 104 % of control; the T/C (dose: 8.0 mg/kg/injection, schedule: Q04DX003 (ip), vehicle: saline with Tween-80) is 90 % of control; the T/C (dose: 12.0 mg/kg/injection, schedule: Q04DX003 (ip), vehicle: saline with Tween-80) is 100 % of control; the T/C (dose: 12.5 mg/kg/injection, schedule: Q01DX009 (ip), vehicle: saline sonified) is 118 % of control; the T/C under setting [2] was 118 % of control; the T/C (dose: 18.0 mg/kg/injection, schedule: Q04DX003 (ip), vehicle: saline with Tween-80) is 113 % of control. Besides, the T/C (dose: 33.0 mg/kg/injection, schedule: Q01DX009 (ip), vehicle: saline sonified) was 165 % of control; the T/C (dose: 50.0 mg/kg/injection, schedule: Q01DX009 (ip), vehicle: saline sonified) is 150 % of control; the T/C (dose: 75.0 mg/kg/injection, schedule: Q01DX009 (ip), vehicle: saline sonified) was 105 % of control.

With `CC(C)C[N+]1(Cc2ccc(Cl)cc2Cl)CCOCC1`, the T/C by setting is: (dose: 100.0 mg/kg/injection, schedule: Q04DX003 (ip), vehicle: saline) 101 % of control; (dose: 200.0 mg/kg/injection, schedule: Q04DX003 (ip), vehicle: saline) 93 % of control.

On to `Cc1ccc(-c2nc3ncnc(N)c3[nH]2)cc1`, for which the T/C is 100 % of control under setting [1]; 100 % of control under setting [2]; 100 % of control and 107 % of control and 114 % of control (dose: 25.0 mg/kg/injection, schedule: Q04DX003 (ip), vehicle: saline with Tween-80); 102 % of control and 113 % of control (dose: 50.0 mg/kg/injection, schedule: Q04DX003 (ip), vehicle: saline with Tween-80); 108 % of control and 124 % of control (dose: 100.0 mg/kg/injection, schedule: Q04DX003 (ip), vehicle: saline with Tween-80); 116 % of control (dose: 200.0 mg/kg/injection, schedule: Q04DX003 (ip), vehicle: saline with Tween-80).

Turning to `COc1c(CC(C)O)c2c3c(CC(C)O)c(OC)c(=O)c4cc(O)c5c(c6c(c(O)cc(c1=O)c26)OCO5)c43` (stereo not drawn), the T/C runs as follows: (dose: 25.0 mg/kg/injection, schedule: Q04DX002 (ip), vehicle: saline with Tween-80) 101 % of control; (dose: 50.0 mg/kg/injection, schedule: Q04DX002 (ip), vehicle: saline with Tween-80) 109 % of control; under setting [3], 101 % of control; (dose: 200.0 mg/kg/injection, schedule: Q04DX002 (ip), vehicle: saline with Tween-80) 115 % of control; (dose: 400.0 mg/kg/injection, schedule: Q04DX002 (ip), vehicle: saline with Tween-80) 115 % of control.

Take `Cc1cc(=O)n(-c2ccc([N+](=O)[O-])cc2)c(C)c1C(=O)O`: the T/C reads like this: under setting [4], 98 % of control; under setting [5], 103 % of control; (dose: 200.0 mg/kg/injection, schedule: Q01DX005 (ip), vehicle: saline with Tween-80) 106 % of control.

`CC(=O)N1C=Cc2ccccc2C1(Br)C1(Br)c2ccccc2C=CN1C(C)=O` (stereo not drawn): the T/C is, setting by setting: (dose: 25.0 mg/kg/injection, schedule: Q01DX005 (ip), vehicle: saline with Tween-80) 97 % of control; under setting [4], 99 % of control; under setting [5], 89 % of control.

In the case of `O=C1Cc2ccccc2N1C(=O)c1cccc(Br)c1`, the T/C was 98 % of control under setting [6] and 95 % of control under setting [7].

As to `C1OCN2CSCC12` (stereo not drawn), the T/C under setting [3] is 116 % of control.

For the molecule `O=C1CCC(CCl)(C(=O)O)O1` (stereo not drawn), the T/C by setting is: (dose: 50.0 mg/kg/injection, schedule: Q01DX009 (ip), vehicle: saline) 106 % of control; (dose: 100.0 mg/kg/injection, schedule: Q01DX009 (ip), vehicle: saline) 106 % of control; (dose: 200.0 mg/kg/injection, schedule: Q01DX009 (ip), vehicle: saline) 91 % of control.

Turning to `CN(CCNCC1CCCN1C)Cc1cccc(Cl)c1` (stereo not drawn), the T/C is 108 % of control (dose: 50.0 mg/kg/injection, schedule: Q01DX005 (ip), vehicle: saline); 101 % of control (dose: 100.0 mg/kg/injection, schedule: Q01DX005 (ip), vehicle: saline); 106 % of control (dose: 200.0 mg/kg/injection, schedule: Q01DX005 (ip), vehicle: saline).

Take `CC1OC(O[C@@H]2OC=C(C=O)[C@@]3(O)CC[C@H](C)[C@@H]23)C(O)C(O)C1O` (stereo partly drawn): the T/C is, setting by setting: (dose: 6.25 mg/kg/injection, schedule: Q01DX005 (ip), vehicle: Klucel (hydroxypropylcellulose) (HPC)) 100 % of control; (dose: 12.5 mg/kg/injection, schedule: Q01DX005 (ip), vehicle: Klucel (hydroxypropylcellulose) (HPC)) 116 % of control; under setting [8], 95 % of control; under setting [9], 87 % of control.

As for `COc1ccc(CCn2cnn3c(=O)c4ccccc4nc3c2=O)cc1OC`, the T/C runs as follows: under setting [10], 99 % of control; under setting [11], 92 % of control.

For the molecule `COc1ccc(CN2CCCNCC2)cc1`, the T/C reads like this: (dose: 12.5 mg/kg/injection, schedule: Q01DX009 (ip), vehicle: water) 93 % of control; (dose: 25.0 mg/kg/injection, schedule: Q01DX009 (ip), vehicle: water) 100 % of control; (dose: 50.0 mg/kg/injection, schedule: Q01DX009 (ip), vehicle: water) 102 % of control; (dose: 100.0 mg/kg/injection, schedule: Q01DX009 (ip), vehicle: water) 93 % of control.

Consider `O=c1[nH]nc(SCc2ccccc2Cl)c(=O)[nH]1`, for which the T/C is, setting by setting: under setting [8], 89 % of control; under setting [9], 89 % of control; (dose: 100.0 mg/kg/injection, schedule: Q01DX005 (ip), vehicle: Klucel (hydroxypropylcellulose) (HPC)) 86 % of control.

For `CC(C)NCC(O)COc1ccc(CCOC(=O)CCc2ccc(C(O)(C(F)(F)F)C(F)(F)F)cc2)cc1` (stereo not drawn), the T/C runs as follows: (dose: 30.0 mg/kg/injection, schedule: Q01DX005 (ip), vehicle: saline with Tween-80) 98 % of control; under setting [10], 96 % of control; under setting [11], 102 % of control.

For the molecule `N#Cc1nc(CC(=O)c2ccc(Cl)c(Cl)c2)c(CC(=O)c2ccc(Cl)c(Cl)c2)nc1C#N`, the T/C was 114 % of control under setting [10]; 120 % of control under setting [11]; 86 % of control (dose: 240.0 mg/kg/injection, schedule: Q01DX005 (ip), vehicle: saline with Tween-80).

With `O=C(Nc1ccc(Br)cc1)c1ccccc1`, the T/C is 95 % of control under setting [12]; 90 % of control under setting [13]; 100 % of control (dose: 400.0 mg/kg/injection, schedule: Q01DX009 (ip), vehicle: saline with Tween-80).

Turning to `CC(=O)Nc1ccc(C(C)=O)cc1`, the T/C runs as follows: (dose: 50.0 mg/kg/injection, schedule: Q01DX009 (ip), vehicle: saline with Tween-80) 93 % of control; under setting [12], 89 % of control; under setting [13], 94 % of control.

On to `C=C1C(=O)OC2CC3(C)OC3CCC3(C)OC3CC12` (stereo not drawn), for which the T/C by setting is: (dose: 7.75 mg/kg/injection, schedule: Q01DX005 (ip), vehicle: Klucel (hydroxypropylcellulose) (HPC)) 105 % of control; (dose: 15.5 mg/kg/injection, schedule: Q01DX005 (ip), vehicle: Klucel (hydroxypropylcellulose) (HPC)) 101 % of control; (dose: 31.0 mg/kg/injection, schedule: Q01DX005 (ip), vehicle: Klucel (hydroxypropylcellulose) (HPC)) 109 % of control; (dose: 62.0 mg/kg/injection, schedule: Q01DX005 (ip), vehicle: Klucel (hydroxypropylcellulose) (HPC)) 105 % of control.

For `CC(C)(C)/C=C/N=NNc1ccccn1`, the T/C was 97 % of control under setting [6]; 92 % of control under setting [7]; 94 % of control (dose: 400.0 mg/kg/injection, schedule: Q01DX001 (ip), vehicle: Klucel (hydroxypropylcellulose) (HPC)).

Regarding `CC1(C)OCC(C2OC(C)(C)OC2C2OC(O)C=CC2=O)O1` (stereo not drawn), the T/C runs as follows: (dose: 0.78 mg/kg/injection, schedule: Q01DX009 (ip), vehicle: distilled water + Tween-80) 108 % of control and 103 % of control; (dose: 1.56 mg/kg/injection, schedule: Q01DX009 (ip), vehicle: distilled water + Tween-80) 116 % of control and 103 % of control; (dose: 3.13 mg/kg/injection, schedule: Q01DX009 (ip), vehicle: distilled water + Tween-80) 100 % of control and 94 % of control; (dose: 6.25 mg/kg/injection, schedule: Q01DX009 (ip), vehicle: distilled water + Tween-80) 100 % of control.
